# Source: PMC3983056 (PLoS Pathogens, 2014)
# Several values for one entry are separate records, joined by “and”; a condition that tells them apart may be missing. Identical values can stand only once.
# Columns and labels:
# [1] = test system: HIV expressing a luciferase reporter gene (NL4-3-Luc) in latently infected primary CD4 T cells; assay: microbe, parasite or virus in culture; assay type: cell-based; conditions: Human immunodeficiency virus 1, NL43, CD4+ T, 48 h, continuous 48 hours, cells from three healthy donors, mean ± SD
# From the text: To assess clinically tested HDACi for their ability to activate HIV from latency, we first employed a previously described in vitro HIV latency model, [30] with several modifications to increase the sensitivity of detection. The assay involves freshly isolated naïve CD4 T cells from healthy donors polarized to a Th0 phenotype, which mimics memory CD4 T cells. These Th0 cells are then infected with HIV expressing a luciferase reporter gene and cultured for an additional 7 to 10 days until a latent infection is established.
# Total peripheral blood mononuclear cells (PBMCs) were obtained from healthy HIV-negative donors by leukapheresis (AllCells, Inc, Emeryville, CA). […] Purified naive CD4+ T cells were activated by incubation with anti-CD3/CD28 magnetic Dynabeads (1 bead: 2 cells ratio, Life Technologies), 1 µg/ml anti-IL-4 (R&D Systems, Minneapolis, MN), 2 µg/ml anti-IL-12p70 antibodies (R&D Systems), and 10 ng/ml TGF-β (R&D Systems) for 3 days, [59]. Following the removal of anti-CD3/CD28 beads and antibodies, cells were maintained in 30 U/ml IL-2 (Life Technologies) for 2 days. Cells were then infected with NL4.3-Luc in the presence of 50 µg/ml DEAE for 3 hours. Cells were maintained in the continued presence of 30 U/ml IL-2 throughout the infection and subsequent rest period with culture medium with fresh IL-2 replaced every 2–3 days. Seven days post-infection, 20 µl of latently infected cells were dispensed into 384 well plates using a MicroFlo dispenser (Biotek Insturments, VT) at 10,000 cells/well containing 100 nl of compound solutions delivered by the Echo acoustic-based liquid dispenser (Labcyte, Sunnyvale, CA). After a 48-hour incubation, 16 µl/well BriteGlo (Promega, Madison, WI) was added and luminescence measured using the Envision plate reader (Perkin Elmer, Waltham, MA). Compound-associated cytotoxicity was determined in latently infected cells in parallel with the virus activation assay. Cells were incubated with compounds for 48 hours at 37°C, and cell viability was determined using Cell Titer Glo reagent (Promega).
# [2] = test system: HIV p24 antigen in latently infected CD4 T-cell cultures; assay: Flow cytometry analysis of p24 expression in the in vitro latency model; assay type: cell-based; conditions: for cells expressing p24 antigen: 48 hours, live cell gate
# Protocol: Seven days post-infection, cells infected with NL4-3-Luc virus were stimulated for 48 hours with test compounds. Cells were stained with fixable viability dye v450 (eBioscience, San Diego, CA) in phosphate buffered saline (PBS) +2% FBS for 30 minutes at 4°C. Cells were fixed with IC Fixation Buffer (eBioscience) for 20 minutes at room temperature in the dark followed by treatment with a permeabilization buffer (eBioscience) for 30 minutes at 4°C. […] The cells were analyzed on a LSR Fortessa (BD Biosciences, San Jose, CA) and collected data were processed using a FlowJo Analysis Software (TreeStar, Ashland, OR).
# [3] = molecular target: T1, human HDAC-5 (Homo sapiens, UniProt Q9UQL6); assay: HDAC inhibition assay; assay type: biochemical
# T1 construct: purchased Reaction Biology Corporation (Malvern, PA)
# [4] = molecular target: T2, human HDAC-7 (Homo sapiens, UniProt Q8WUI4); assay: HDAC inhibition assay; assay type: biochemical
# T2 construct: purchased Reaction Biology Corporation (Malvern, PA)
# [5] = molecular target: T3, human HDAC-9 (Homo sapiens, UniProt Q9UKV0); assay: HDAC inhibition assay; assay type: biochemical
# T3 construct: purchased Reaction Biology Corporation (Malvern, PA)
# [6] = molecular target: T4, human HDAC-1 (Homo sapiens, UniProt Q13547); assay: HDAC inhibition assay; assay type: biochemical
# T4 construct: purchased Reaction Biology Corporation (Malvern, PA)
# Protocol: (§1) Determination of HDACi potency against individual HDAC enzymes was performed at Reaction Biology Corporation (Malvern, PA). In brief, human HDAC-1 to -11 enzymes were incubated with serial dilutions of HDACi and fluorogenic peptide substrates (50 µM) in a 96-well format assay. […] Fluorogenic peptide Boc-Lys(trifluoroacetyl)-AMC was used as a substrate for HDAC enzymes 4, 5, 7, and 9.
# [7] = molecular target: T5, human HDAC-10 (Homo sapiens, UniProt Q969S8); assay: HDAC inhibition assay; assay type: biochemical
# T5 construct: purchased Reaction Biology Corporation (Malvern, PA)
# Protocol: as §1
# [8] = molecular target: T6, human HDAC-4 (Homo sapiens, UniProt P56524); assay: HDAC inhibition assay; assay type: biochemical
# T6 construct: purchased Reaction Biology Corporation (Malvern, PA)
# Protocol: as §1
# [9] = test system: latent HIV in memory CD4 T cells from HIV-infected patients on suppressive cART; assay: Ex vivo activation of HIV transcription, cell-associated HIV RNA, memory CD4 T cells; assay type: cell-based; conditions: for HIV RNA avg: Figure 2A, 40 nM RMD, one value per donor
# Protocol: To examine the kinetics of HIV induction, we analyzed cell-associated viral RNA levels at 6, 12, 24, and 48 hours after treatment initiation.
# Lysates were filtered through a Qiashredder (Qiagen).
# [10] = test system: CD4+ T cells, CD8+ T cells and CD19+ B cells in PBMCs from HIV-infected subjects; assay: Cell activation analysis by flow cytometry, PBMC cultures; assay type: cell-based, human; conditions: 4-hour pulse of 15 or 40 nM RMD, any cell subset
# Protocol: (§2) HIV latency reversing agents that would be suitable for the therapeutic use in vivo should not induce non-specific immune activation.
# For cell activation analysis, either complete PBMC cultures or resting CD4+ T cells isolated from HIV-infected cART-suppressed patients were incubated with the tested agents under specified conditions and were stained with relevant antibodies. All antibodies were purchased from BD Biosciences and included Alexa Fluor 700-labeled antibody to CD4, APC-H7-labeled antibody to CD8, PE-Cy7 -labeled antibody to CD19, PE-labeled antibody to CD69, APC-labeled antibody to CD25, and V450-labeled antibody to HLA-DR. Live cells were gated by forward and side scatter and exclusion of the dead cells by Live/Dead Fixable Aqua Stain (Invitrogen). Marker staining was assessed by flow cytometry analysis on a LSR Fortessa with data processing using FlowJo software.
# [11] = test system: resting CD4 T cells from cART-suppressed HIV-infected patients; assay: Cell activation analysis by flow cytometry, isolated resting CD4 T cells; assay type: cell-based, human; conditions: 4-hour pulse RMD
# Protocol: The surface expression of CD25 and CD69 in viable CD4 cells was analyzed by flow cytometry. Data are mean ± SD of two independent experiments performed with cells isolated from two HIV-infected patients on suppressive cART.
# [12] = test system: PBMC cultures from HIV-infected patients; assay: Cytokine induction in PBMC cultures; assay type: cell-based, human; conditions: RMD treatment, data not shown
# From the text: as §2
# [13] = Clinical systemic exposure; assay type: in vivo, human
# [14] = human, in vivo; cited from earlier work
# T4 sequence (Q13547 whole entry): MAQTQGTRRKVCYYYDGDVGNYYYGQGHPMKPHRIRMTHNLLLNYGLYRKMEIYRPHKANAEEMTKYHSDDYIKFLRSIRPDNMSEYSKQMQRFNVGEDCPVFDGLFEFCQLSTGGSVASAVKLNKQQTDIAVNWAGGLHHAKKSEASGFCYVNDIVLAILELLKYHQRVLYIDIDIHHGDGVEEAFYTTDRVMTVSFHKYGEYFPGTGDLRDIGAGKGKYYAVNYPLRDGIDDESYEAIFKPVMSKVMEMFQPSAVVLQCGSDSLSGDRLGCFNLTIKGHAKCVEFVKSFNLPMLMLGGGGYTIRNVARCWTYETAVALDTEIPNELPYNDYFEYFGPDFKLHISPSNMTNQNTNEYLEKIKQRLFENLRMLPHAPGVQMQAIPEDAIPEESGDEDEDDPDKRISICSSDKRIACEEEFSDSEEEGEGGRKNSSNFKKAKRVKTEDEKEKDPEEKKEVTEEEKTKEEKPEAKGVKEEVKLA
# T1 sequence (Q9UQL6 whole entry): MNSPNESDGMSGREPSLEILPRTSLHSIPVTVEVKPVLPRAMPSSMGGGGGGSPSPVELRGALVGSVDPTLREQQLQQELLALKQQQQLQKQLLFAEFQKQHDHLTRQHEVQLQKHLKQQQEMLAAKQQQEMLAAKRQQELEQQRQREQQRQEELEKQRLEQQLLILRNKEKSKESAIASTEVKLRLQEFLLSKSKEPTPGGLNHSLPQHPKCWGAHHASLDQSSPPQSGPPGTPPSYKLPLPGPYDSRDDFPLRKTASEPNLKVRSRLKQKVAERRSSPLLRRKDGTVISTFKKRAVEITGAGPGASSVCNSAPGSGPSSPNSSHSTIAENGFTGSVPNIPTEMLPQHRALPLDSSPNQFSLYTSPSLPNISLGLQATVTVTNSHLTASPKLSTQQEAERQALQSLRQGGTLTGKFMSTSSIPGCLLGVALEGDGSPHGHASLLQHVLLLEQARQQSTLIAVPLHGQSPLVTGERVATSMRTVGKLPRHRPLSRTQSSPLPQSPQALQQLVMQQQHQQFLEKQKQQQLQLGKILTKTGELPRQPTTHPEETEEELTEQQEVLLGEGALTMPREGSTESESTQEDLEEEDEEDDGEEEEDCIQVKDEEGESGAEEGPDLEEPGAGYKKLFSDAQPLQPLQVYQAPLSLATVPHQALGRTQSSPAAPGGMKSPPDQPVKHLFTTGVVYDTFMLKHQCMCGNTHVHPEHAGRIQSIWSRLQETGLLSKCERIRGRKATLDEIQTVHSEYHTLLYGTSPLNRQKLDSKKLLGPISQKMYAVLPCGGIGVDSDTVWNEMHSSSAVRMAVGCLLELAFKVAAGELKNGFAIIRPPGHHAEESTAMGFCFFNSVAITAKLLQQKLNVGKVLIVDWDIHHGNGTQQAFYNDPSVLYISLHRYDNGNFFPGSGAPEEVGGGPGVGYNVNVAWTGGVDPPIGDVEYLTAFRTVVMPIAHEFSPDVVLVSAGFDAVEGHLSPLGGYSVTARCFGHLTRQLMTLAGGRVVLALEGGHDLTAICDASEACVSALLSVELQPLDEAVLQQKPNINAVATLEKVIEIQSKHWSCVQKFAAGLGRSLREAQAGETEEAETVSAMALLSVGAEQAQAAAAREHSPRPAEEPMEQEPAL
# T2 sequence (Q8WUI4 whole entry): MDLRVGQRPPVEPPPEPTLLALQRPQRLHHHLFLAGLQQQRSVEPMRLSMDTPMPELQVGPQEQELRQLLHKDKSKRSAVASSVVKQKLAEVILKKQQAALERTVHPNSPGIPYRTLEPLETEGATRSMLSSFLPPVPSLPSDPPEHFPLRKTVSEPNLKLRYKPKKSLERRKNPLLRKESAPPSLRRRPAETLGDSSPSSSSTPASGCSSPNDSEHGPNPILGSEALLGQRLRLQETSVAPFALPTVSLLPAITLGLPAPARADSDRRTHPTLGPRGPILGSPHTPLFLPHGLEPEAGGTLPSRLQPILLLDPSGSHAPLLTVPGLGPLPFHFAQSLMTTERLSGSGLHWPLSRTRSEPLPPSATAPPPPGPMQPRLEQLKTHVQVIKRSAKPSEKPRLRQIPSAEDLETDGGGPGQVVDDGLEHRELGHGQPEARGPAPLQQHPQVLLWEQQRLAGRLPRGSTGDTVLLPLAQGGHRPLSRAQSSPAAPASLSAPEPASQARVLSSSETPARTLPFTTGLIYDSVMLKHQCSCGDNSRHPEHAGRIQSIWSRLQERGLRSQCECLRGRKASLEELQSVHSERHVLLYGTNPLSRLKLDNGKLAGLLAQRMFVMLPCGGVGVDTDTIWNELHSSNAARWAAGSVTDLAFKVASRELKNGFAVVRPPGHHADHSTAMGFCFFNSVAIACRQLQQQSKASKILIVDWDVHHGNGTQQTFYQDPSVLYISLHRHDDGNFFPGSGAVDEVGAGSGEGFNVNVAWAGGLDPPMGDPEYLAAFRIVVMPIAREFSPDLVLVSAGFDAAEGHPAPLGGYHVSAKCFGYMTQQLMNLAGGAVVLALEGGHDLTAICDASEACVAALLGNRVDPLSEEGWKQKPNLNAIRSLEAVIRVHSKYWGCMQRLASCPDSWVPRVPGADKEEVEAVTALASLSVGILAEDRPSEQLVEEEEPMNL
# T3 sequence (Q9UKV0 whole entry): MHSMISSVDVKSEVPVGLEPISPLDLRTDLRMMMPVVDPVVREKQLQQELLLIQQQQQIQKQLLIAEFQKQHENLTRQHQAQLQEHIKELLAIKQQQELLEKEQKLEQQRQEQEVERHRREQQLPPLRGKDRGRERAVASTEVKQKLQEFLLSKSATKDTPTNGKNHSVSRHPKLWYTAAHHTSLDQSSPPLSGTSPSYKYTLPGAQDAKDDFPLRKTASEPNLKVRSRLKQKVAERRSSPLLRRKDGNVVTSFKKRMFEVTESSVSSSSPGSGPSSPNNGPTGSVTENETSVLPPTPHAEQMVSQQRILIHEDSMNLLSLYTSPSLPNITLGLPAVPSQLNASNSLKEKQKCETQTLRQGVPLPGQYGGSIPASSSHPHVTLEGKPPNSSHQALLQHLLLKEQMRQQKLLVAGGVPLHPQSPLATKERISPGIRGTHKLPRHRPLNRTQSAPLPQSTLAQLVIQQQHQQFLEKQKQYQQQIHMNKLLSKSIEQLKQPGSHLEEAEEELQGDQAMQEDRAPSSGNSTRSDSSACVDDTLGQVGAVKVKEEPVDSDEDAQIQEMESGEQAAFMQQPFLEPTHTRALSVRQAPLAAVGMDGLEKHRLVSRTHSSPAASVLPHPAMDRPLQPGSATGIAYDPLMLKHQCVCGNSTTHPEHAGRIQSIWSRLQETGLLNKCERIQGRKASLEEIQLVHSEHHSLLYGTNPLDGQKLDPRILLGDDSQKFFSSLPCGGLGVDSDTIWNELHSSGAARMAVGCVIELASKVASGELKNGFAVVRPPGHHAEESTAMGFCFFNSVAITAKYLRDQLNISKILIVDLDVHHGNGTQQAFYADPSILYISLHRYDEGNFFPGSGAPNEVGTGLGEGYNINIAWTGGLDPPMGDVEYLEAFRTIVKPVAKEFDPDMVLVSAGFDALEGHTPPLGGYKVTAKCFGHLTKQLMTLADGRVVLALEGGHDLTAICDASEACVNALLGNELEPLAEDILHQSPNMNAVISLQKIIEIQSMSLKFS
# T5 sequence (Q969S8 whole entry): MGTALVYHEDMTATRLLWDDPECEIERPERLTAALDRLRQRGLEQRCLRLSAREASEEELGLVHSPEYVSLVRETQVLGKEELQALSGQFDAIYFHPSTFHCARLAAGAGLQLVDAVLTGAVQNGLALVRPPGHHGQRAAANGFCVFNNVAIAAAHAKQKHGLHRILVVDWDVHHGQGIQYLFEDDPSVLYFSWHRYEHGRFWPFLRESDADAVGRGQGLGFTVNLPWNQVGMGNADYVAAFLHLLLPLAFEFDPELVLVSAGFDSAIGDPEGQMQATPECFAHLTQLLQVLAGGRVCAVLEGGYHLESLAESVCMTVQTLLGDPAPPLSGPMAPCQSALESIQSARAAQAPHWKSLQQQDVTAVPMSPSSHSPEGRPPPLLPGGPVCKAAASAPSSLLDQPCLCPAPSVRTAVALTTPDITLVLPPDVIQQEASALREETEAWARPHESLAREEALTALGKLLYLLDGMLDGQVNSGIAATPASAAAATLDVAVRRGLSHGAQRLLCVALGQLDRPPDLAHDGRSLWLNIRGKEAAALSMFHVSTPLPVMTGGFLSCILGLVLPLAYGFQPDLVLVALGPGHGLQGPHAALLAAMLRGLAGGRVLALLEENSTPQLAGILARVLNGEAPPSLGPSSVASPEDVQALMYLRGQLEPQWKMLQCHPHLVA
smiles,measurement,setting,value
"C/C=C1\NC(=O)[C@H]2CSSCC/C=C/[C@H](CC(=O)N[C@H](C(C)C)C(=O)N2)OC(=O)[C@H](C(C)C)NC1=O [RMD, romidepsin]",EC50,[1],0.0045 ± 0.001 µM
same,cells expressing p24 antigen,[2]; 5 nM RMD,3.3%
same,cells expressing p24 antigen,[2]; 80 nM RMD,5.5%
same,time course of p24 expression,"[2]; 24 to 72 hours, 40 nM RMD or anti-CD3/CD28 antibodies, in presence of antiretrovirals",continued to increase for 72 hours
same,IC50,[3],1.16 µM
same,IC50,[4],3.4 µM
same,IC50,[5],8.91 µM
same,IC50,[6],0.000102 µM
same,IC50,[7],0.000133 µM
same,IC50,[8],0.314 µM
same,HIV RNA avg,[9]; 6hr,164 copies/mil cells and 924 copies/mil cells and 4345 copies/mil cells and 5330 copies/mil cells and 714 copies/mil cells
same,HIV RNA avg,[9]; 12hr,222 copies/mil cells and 562 copies/mil cells and 5634 copies/mil cells and 3147 copies/mil cells and 922 copies/mil cells
same,HIV RNA avg,[9]; 24hr,702 copies/mil cells and 1193 copies/mil cells and 7541 copies/mil cells and 2530 copies/mil cells and 1320 copies/mil cells
same,HIV RNA avg,[9]; 48hr,2153 copies/mil cells and 3839 copies/mil cells and 30568 copies/mil cells and 3060 copies/mil cells and 1406 copies/mil cells
same,increase in intracellular HIV RNA levels versus vehicle,"[9]; memory CD4 T cells, 40 nM RMD for 4 hours, peak between 24 and 48 hours",6 fold
same,expression of CD25 or HLA-DR,[10],did not lead to any changes
same,fraction of CD69-positive cells,[11],minimal increases
same,"induction of IFN-α, IFN-γ, TNF-α, TGF-β, IL-2, IL-7 or other cytokines",[12],no significant induction
same,"Free drug concentration, clinical systemic exposure","[13]; at Cmax, RMD 14 mg/m^2 i.v., VOR 400 mg p.o.",56 nM
same,Fraction of clinical exposure,"[13]; ratio of free drug concentration in cell culture media (RMD 40 nM, VOR 1,000 nM) and in serum of clinically treated patients",39%
same,most common adverse reactions,[14],"thrombocytopenia, neutropenia, lymphopenia, nausea, and fatigue"
